Experimental findings from US10723765B2, “Beta-hairpin peptidomimetics as selective elastase inhibitors” (POLYPHOR AG, priority 2013, dated 2020) are described below.

Like-named read-outs stand apart in the source and are kept apart here. Non-standard residues stand in square brackets, D forms with d. Residues, ends and D or L forms follow the SMILES beside them. *: point of attachment. Gly(octyl) = CCCCCCCC[C@H](N)C(=O)O; NHPhenethyl = c1ccc(CCN*)cc1

Common to all, as to type: biochemical
One assay concerns the target T1, human proteinase 3 (Homo sapiens, UniProt P24158).
T1 construct: purchased Elastin Products Company, USA
T1 sequence (P24158 28-248): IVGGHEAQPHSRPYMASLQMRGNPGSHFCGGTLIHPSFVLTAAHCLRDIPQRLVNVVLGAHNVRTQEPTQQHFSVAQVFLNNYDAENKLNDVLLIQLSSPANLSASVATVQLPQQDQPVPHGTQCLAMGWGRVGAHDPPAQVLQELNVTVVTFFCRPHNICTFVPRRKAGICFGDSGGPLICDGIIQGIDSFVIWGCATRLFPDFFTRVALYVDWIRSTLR
The experiment in a line: Inhibition of human proteinase 3 (Boc-Ala-Ala-Nva-SBzl). Conditions: for hNE/hPr3 selectivity: ratio of hPr3 IC50 to hNE IC50. The procedure:
2.4. Inhibition of Human Proteinase 3
The inactivation of human proteinase 3 (Elastin Products Company, USA) by the peptides of the invention using synthetic tripeptidic substrate Boc-Ala-Ala-Nva-SBzl (Elastin Products Company, USA) was determined as follows:
The above substrate (1 mM), 4,4′-dithiodipyridine (250 μM) and human proteinase 3 (10 nM) were incubated at 37° C. with serial dilutions of the peptides (0.5% DMSO final) in assay buffer (50 mM Tris, pH7.4, 150 mM NaCl, 0.01% Tween20). The reaction process was followed by monitoring the change in absorbance at 340 nm for 30 minutes. Control assays with the same assay set-up as above, but without peptide, ran linearly. The dose-response data were fitted to the 4-parameter Hill equation providing the IC50 value using Graphpad (Prism 5).

The target of assay [1] is T2, porcine pancreatic elastase (Sus scrofa, UniProt P00772).
T2 construct: purchased Sigma, USA
Put plainly: Inhibition of porcine pancreatic elastase (MeOSuc-AAA-pNA hydrolysis). Conditions: for hNE/PPE selectivity: ratio of PPE IC50 to hNE IC50. The procedure:
2.3. Inhibition of Porcine Pancreatic Elastase
The ability of the peptides of the invention to inhibit the hydrolysis activity of porcine pancreatic elastase (Sigma, USA) using the synthetic tripeptidic substrate MeOSuc-AAA-pNA (Bachem, Switzerland) was determined as follows:
The above substrate (1 mM) and […] porcine pancreatic elastase (15 nM) were incubated at 37° C. with serial dilutions of the peptides (0.5% DMSO final) in assay buffer (50 mM Tris, pH8, 100 mM NaCl, 0.01% Tween20). The release of pNA was followed by monitoring the change in absorbance at 405 nm for 30 minutes. Control assays with the same assay set-up as above, but without peptide, ran linearly. The dose-response data were fitted to the 4-parameter Hill equation providing the IC50 value using Graphpad (Prism 5).

Assay [2] has as its target T3, human neutrophil elastase (Homo sapiens, UniProt P08246).
T3 construct: purchased Serva Electrophoresis, Germany
T3 sequence (P08246 30-267): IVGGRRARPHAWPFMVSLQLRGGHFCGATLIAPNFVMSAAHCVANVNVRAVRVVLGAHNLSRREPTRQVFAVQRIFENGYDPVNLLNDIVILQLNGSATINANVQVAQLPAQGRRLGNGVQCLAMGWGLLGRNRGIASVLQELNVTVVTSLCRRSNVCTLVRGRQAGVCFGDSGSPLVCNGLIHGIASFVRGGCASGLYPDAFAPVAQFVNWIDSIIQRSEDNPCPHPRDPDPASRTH
The experiment in a line: Inhibition of human neutrophil elastase (MeOSuc-AAPV-pNA hydrolysis). The protocol: 2.2. Inhibition of Human Neutrophil Elastase
The ability of the peptides of the invention to inhibit the hydrolysis activity of human neutrophil elastase (Serva Electrophoresis, Germany) using the synthetic tetrapeptidic substrate MeOSuc-AAPV-pNA (Bachem, Switzerland) was determined as follows:
The above substrate (0.3 mM) and human neutrophil elastase (10 nM) were incubated at 37° C. with serial dilutions of the peptides (1% DMSO final) in assay buffer (50 mM Tris, pH 8, 300 mM NaCl, 0.01% Tween20). The release of pNA was followed by monitoring the change in absorbance at 405 nm for 30 minutes. Control assays with the same assay set-up as above, but without peptide, ran linearly. The dose-response data were fitted to the 4-parameter Hill equation providing the IC50 value using Graphpad (Prism 5).

[3] abbreviates: 10 nM enzyme, 1 mM substrate, 37° C., pH7.4, read-out: Human proteinase 3 (hPr3) IC50.
Where [4] appears, read: 15 nM enzyme, 1 mM substrate, 37° C., pH8, read-out: Porcine pancreatic elastase (PPE) IC50.
[5] abbreviates: 10 nM enzyme, 0.3 mM substrate, 37° C., pH 8, read-out: Human neutrophil elastase (hNE) IC50.

T2 sequence (P00772 27-266): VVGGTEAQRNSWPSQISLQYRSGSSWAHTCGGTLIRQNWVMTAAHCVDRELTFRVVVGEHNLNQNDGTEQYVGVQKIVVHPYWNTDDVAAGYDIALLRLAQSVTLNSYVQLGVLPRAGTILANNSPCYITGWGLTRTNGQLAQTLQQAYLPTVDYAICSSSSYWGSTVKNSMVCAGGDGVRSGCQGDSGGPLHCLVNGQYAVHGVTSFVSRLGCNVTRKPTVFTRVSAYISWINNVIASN

For the molecule `CCCCCCCC[C@@H]1NC(=O)[C@@H]2CCCN2C(=O)[C@H]2CCCN2C(=O)[C@H](CC(N)=O)NC(=O)[C@H](CCCCN)NC(=O)[C@H](CCC(N)=O)NC(=O)[C@@H]2CCCN2C(=O)[C@@H]2CCCN2C(=O)[C@H]([C@@H](C)CC)NC(=O)[C@H](CO)NC(=O)[C@H](C)NC(=O)[C@H]([C@@H](C)O)NC(=O)[C@H](CCC(=O)O)NC1=O` [Example 1, Cyclo(-OctGly-Glu-Thr-Ala-Ser-Ile-Pro-Pro-Gln-Lys-Asn-^DPro-Pro-)] (cyclo([Gly(octyl)]ETASIPPQKN[dP]P)), the IC50 on human proteinase 3 (setting [3]) is 1810 nM; in assay [1] (setting [4]) it was 1550 nM; in assay [2] (setting [5]), 5.3 nM. Also, the hNE/hPr3 selectivity at human proteinase 3 is 342. In assay [1], the hNE/PPE selectivity was 292.
For the molecule `CC[C@H](C)[C@@H]1NC(=O)[C@H](CO)NC(=O)[C@H](C)NC(=O)[C@H]([C@@H](C)O)NC(=O)[C@H](CCC(=O)O)NC(=O)[C@H](CCC(=O)NCCc2ccccc2)NC(=O)[C@@H]2CCCN2C(=O)[C@H]2CCCN2C(=O)[C@H](Cc2ccc(O)cc2)NC(=O)[C@H](CCCCN)NC(=O)[C@H](CCC(N)=O)NC(=O)[C@@H]2CCCN2C(=O)[C@@H]2CCCN2C1=O` [Example 15, Cyclo(-Glu(Phenethyl)-Glu-Thr-Ala-Ser-Ile-Pro-Pro-Gln-Lys-Tyr-^DPro-Pro-)] (cyclo(E(NHPhenethyl)ETASIPPQKY[dP]P)), at human proteinase 3, the IC50 was 6690 nM and the hNE/hPr3 selectivity stood at 360. Moreover, in assay [1], the IC50 turned out to be 1620 nM and the hNE/PPE selectivity was determined as 87. Besides, the midpoint of inhibition in assay [2], the IC50, lay at 18.6 nM.
For `CC[C@H](C)[C@@H]1NC(=O)[C@H](CO)NC(=O)[C@H](C)NC(=O)[C@H]([C@@H](C)O)NC(=O)[C@H](CCC(=O)O)NC(=O)[C@H](CCCNC(=N)N)NC(=O)[C@@H]2CCCN2C(=O)[C@H]2CCCN2C(=O)[C@H]([C@@H](C)O)NC(=O)[C@H](CCCCN)NC(=O)[C@H](CCC(N)=O)NC(=O)[C@@H]2CCCN2C(=O)[C@@H]2CCCN2C1=O` [Example 11, Cyclo(-Arg-Glu-Thr-Ala-Ser-Ile-Pro-Pro-Gln-Lys-Thr-^DPro-Pro-)] (cyclo(RETASIPPQKT[dP]P)), the figures for the IC50 (at human proteinase 3 (setting [3]); in assay [1] (setting [4]); in assay [2] (setting [5])) were > 100000 nM, > 100000 nM and 12.5 nM, respectively. For the same molecule, the hNE/hPr3 selectivity at human proteinase 3 is >8000. The hNE/PPE selectivity in assay [1] was >8000.
As for `CCCCCCCC[C@@H]1NC(=O)[C@@H]2CCCN2C(=O)[C@H]2CCCN2C(=O)[C@H]([C@@H](C)O)NC(=O)[C@H](CCCCN)NC(=O)[C@H](Cc2ccc(O)cc2)NC(=O)[C@@H]2CCCN2C(=O)[C@@H]2CCCN2C(=O)[C@H]([C@@H](C)CC)NC(=O)[C@H](CO)NC(=O)[C@H](C)NC(=O)[C@H]([C@@H](C)O)NC(=O)[C@H](CCC(=O)O)NC1=O` [Example 2, Cyclo(-OctGly-Glu-Thr-Ala-Ser-Ile-Pro-Pro-Tyr-Lys-Thr-^DPro-Pro-)] (cyclo([Gly(octyl)]ETASIPPYKT[dP]P)), the IC50 on human proteinase 3 (setting [3]) was 1520 nM; in assay [1] (setting [4]), 530 nM; in assay [2] (setting [5]) it was 5.4 nM. Moreover, the hNE/hPr3 selectivity on human proteinase 3 came to 282. Further, the hNE/PPE selectivity in assay [1] came to 98.
